Assay results reported in patent US20220016271A1, “METHODS FOR TREATING CANCER” (The Brigham and Women`s Hospital, Inc., priority 2018, published 2022).

Experiments:
[1] = system: p53-null H1299 cells; assay: Cell viability by AlamarBlue assay; assay type: cell-based, human
Protocol: (§1) Cell viability and transfection efficiency of EGFP-mRNA NPs. The p53-null Hep3B cells or H1299 cells were plated in 96-well plates at a density of 3×10^3 cells per well. […] Lip2k was used as a positive control for transfection efficiency comparison with the NPs. Cell viability was tested by AlamarBlue assay, which is a non-toxic assay that can continuously check real-time cell proliferation through a microplate reader (TECAN, Infinite M200 Pro). Absorbance was examined by a 96-well SpectraMax plate reader (Molecular Devices) at 545 nm and 590 nm. To measure the transection efficiency, cells were treated with EGFP-mRNA by NPs or Lip2k for 24 hours, detached with 2.5% EDTAtrypsin, and collected in PBS solution, followed by evaluating GFP expression using flow cytometry (BD Biosystems). The percentages of EGFP-positive cells were calculated and analyzed by Flowjo software.
(§2) Combination index (CI) calculation.

[2] = system: p53-null Hep3B cells; assay: Cell viability by AlamarBlue assay; assay type: cell-based, human
Protocol: as §1, §2

[3] = system: H1299 cells; assay: Apoptosis detection (Annexin V/PI, flow cytometry); assay type: cell-based, human; conditions: AnnV/PI co-staining
Protocol: (§3) Apoptosis and cell cycle detection in vitro. We used an FITC Annexin V/Propidium iodide (PI) apoptosis detection kit (BD Biosciences) to detect apoptosis. In brief, 1×10^6 cells were seeded into 6-well plates. After attachment overnight, cells were treated with p53-mRNA NPs for 24 hours before being mixed with 1 ml fresh medium and continuing to culture for another 24 h. All the attached cells together with the floating cells in the medium were harvested, washed with PBS twice, and dispersed in 1× binding buffer solution (ice-cold) at a concentration of 1×10^6 cells/ml. 5 μl of FITC Annexin V and 5 μl of PI were further mixed with 100 μl of the cell suspension. We then incubated the mixture at room temperature for 15 min in a dark environment and performed analysis using the FACS Calibur Flow Cytometer (BD Biosystems). Cells were incubated for 48 hours with empty NPs, naked p53-mRNA, or p53-mRNANPs washed in PBS and fixed with 70% ethanol overnight, then washed in PBS twice and incubated with PI for 30 minutes at 37° C.; cell-cycle fractions (percentage of cells with fractional DNA content in G1, S, and G2/M phases of the cycle) were estimated by flow cytometry and analyzed by Flowjo software.

[4] = system: Hep3B cells; assay: Apoptosis detection (Annexin V/PI, flow cytometry); assay type: cell-based, human; conditions: AnnV/PI co-staining
Protocol: as §3

[5] = system: p53-null Hep3B cells; assay: Western blot, IF, TEM and GFP-LC3B CLSM analysis of p53, cell cycle, apoptosis, mTOR and autophagy pathways; assay type: cell-based, human
Protocol: (§4) Western blot assay. Cells or dissected tumors in each group were lysed in a lysis buffer (1 mM EDTA, 20 mM Tris-HCl pH 7.6, 140 mM NaCl, 1% aprotinin, 1% NP-40, 1 mM phenylmethylsulphonyl fluoride, and 1 mM sodium vanadate), and supplemented with protease inhibitor cocktail (Cell Signaling Technology). Protein concentration was detected by a bicinchoninic acid (BCA) Protein Assay Kit (Pierce). 25 μg of proteins were loaded on 6-12% precast gels (Invitrogen), and then transferred to Immobilon PVDF membranes (Bio-Rad, 162-0176 and 162-0177). The transferred membranes were blocked with 5% bovine serum albumin (BSA) in TBST (150 mM NaCl, 50 mM Tris-HCl at pH 7.4, and 0.1% Tween 20) for 1 hour at room temperature, and were further incubated with primary antibodies overnight at 4° C. The immunoreactive bands were detected with appropriate HRP-conjugated secondary antibodies. Band density was detected by enhanced chemiluminescence (ECL) detection system (Amersham/GE Healthcare).
Immunofluorescent staining and TEM detection. Cells or tumor tissues were fixed with 4% paraformaldehyde (Electron Microscopy Sciences) at room temperature for 15 min, followed by permeabilization in 0.2% Triton X-100-PBS for 10 min. Samples were further incubated with PBS blocking buffer (containing 2% BSA, 2% normal goat serum, and 0.2% gelatin) at room temperature for 30 min. Afterwards, the samples were incubated with primary antibody overnight at 4° C., washed with PBS, and incubated in goat anti-rat-Alexa Fluor 647 (Molecular Probes) in blocking buffer (1:1000 dilution) at room temperature for 60 min. Stained samples were washed with PBS, nuclei were stained using Hoechst 33342 (Molecular Probes-Invitrogen, H1399, 1:2000 dilution in PBS), and the samples were mounted on slides with Prolong Gold antifade mounting medium (Life Technologies). […]
(§5) Quantification of GFP-LC3B puncta. […] A confocal fluorescence microscope was used to observe the fluorescence of GFP-LC3B. To quantify the extent of autophagy, cells showing accumulation of GFP-LC3B in vacuoles or dots were counted. […]

[6] = system: p53-null H1299 cells; assay: Western blot, IF, TEM and GFP-LC3B CLSM analysis of p53, apoptosis, mTOR and autophagy pathways; assay type: cell-based, human
Protocol: as §4
Immunofluorescent staining and TEM detection. […]
as §5

[7] = system: p53-null Hep3B xenografts; assay: In vivo therapeutic efficacy in p53-null HCC xenograft tumor model; design: species or system athymic nude mice; conditions: mRNA 750 μg/kg IV; everolimus 5 mg/kg oral; every three days, six treatments
Protocol: In vivo therapeutic efficacy in p53-null HCC xenograft tumor model. […] The day that first treatment was performed was designated as Day 0. […] The body weights of all the mice were also recorded over this period.
as §2

[8] = system: p53-null Hep3B tumor sections; assay: In vivo mechanisms (IF, IHC, TUNEL, WB of tumor sections); design: species or system athymic nude mice; conditions: mouse
Protocol: In vivo mechanisms underlying the p53-mRNA NP-mediated sensitization to everolimus. […] The mice were sacrificed at 12, 24, 48, or 60 hours after the last injection of p53-mRNANPs, and the tumors were harvested for sections. Mice bearing p53-null Hep3B liver xenografts and intravenously injected with PBS were used as controls and sacrificed at 60 hours after the last injection. The expression of p53 and C-CAS3 was monitored via IF detection. Moreover, tumor sections from both the PBS group and p53-mRNANP group (60 hours after the last injection) were analyzed by IHC. The expression of p53, tumor cell apoptosis markers (BAX, C-CAS3), and proliferation markers (Ki67 and PCNA) was further assessed.
Western blot assay. Cells or dissected tumors in each group were lysed in a lysis buffer (1 mM EDTA, 20 mM Tris-HCl pH 7.6, 140 mM NaCl, 1% aprotinin, 1% NP-40, 1 mM phenylmethylsulphonyl fluoride, and 1 mM sodium vanadate), and supplemented with protease inhibitor cocktail (Cell Signaling Technology). Protein concentration was detected by a bicinchoninic acid (BCA) Protein Assay Kit (Pierce). […] The immunoreactive bands were detected with appropriate HRP-conjugated secondary antibodies. Band density was detected by enhanced chemiluminescence (ECL) detection system (Amersham/GE Healthcare). […]

[9] = system: Hep3B-Luc orthotopic tumors; assay: In vivo therapeutic efficacy in p53-null orthotopic HCC model (bioluminescence); design: species or system athymic nude mice; conditions: mRNA 750 μg/kg IV; everolimus 5 mg/kg oral; every three days, 4 rounds
Protocol: In vivo therapeutic efficacy in p53-null orthotopic HCC model. To establish the orthotopic HCC model, luciferase-expressing Hep3B (Hep3B-Luc) cells were used. Six-week-old female athymic nude mice were obtained from Zhejiang Medical Academy Animal Center. Animal studies were conducted following the protocol approved by the Institutional Animal Ethics Committee of Hangzhou Normal University. First, anterior abdominal exposure was made and a cotton swab with iodine volts was used to sterilize this area. A one-centimeter-long midline incision was made along the anterior abdominal wall below the xiphoid after anesthesia by isoflurane, and ˜5×10^6 p53-null Hep3B-Luc cells in 50 μl of PBS were injected into the left lobe of the livers of the athymic nude mice (30 in total). The injection depth was not deeper than 2 mm. The inner and outer layers of the abdominal cavity were sutured one by one after tumor cell inoculation. […] The first treatment was performed at Day 0. On Day 12, all the mice were sacrificed. Mice were monitored for tumor growth by bioluminescent in vivo imaging every 6 days (Day 0, 6, and 12). To do this, these mice were injected intraperitoneally with 150 mg/kg D-luciferin substrate (PerkinElmer, Catalog #122799) and imaged by an IVIS Lumina S5 (PerkinElmer) imaging system.

[10] = system: p53-null H1299 liver metastases; assay: In vivo therapeutic efficacy in p53-null disseminated NSCLC model (liver metastases); design: species or system athymic nude mice; conditions: mRNA 750 μg/kg IV; everolimus 5 mg/kg oral; five rounds
Protocol: In vivo therapeutic efficacy in p53-null disseminated NSCLC model. To establish the experimental disseminated metastatic model, ˜1×10^6p53-null H1299 cells in 100 μl of PBS were injected via tail vein into female athymic nude mice. […] The first treatment was performed at Day 0. On Day 15, all the mice were sacrificed, and one liver was randomly selected from each group for H&E staining. The liver section from each group was divided into four regions for calculation of the metastasis numbers (FIG. 55).

[11] = system: A549 (p53 wild type); assay type: cell-based; conditions: p53 mRNA 1 μg/mL; metformin 4 or 6 mg/mL (FIG. 60)
Protocol: Experimental Methods. […] Then, the cell viabilities of these cells were measured by Alamar blue assay. […] The cells without receiving any treatments were labeled as the “Control”.

[12] = increasing everolimus concentrations

| SMILES | viability at 0.016 µM ([1]; Homo sapiens, NCI-H1299, mRNA 0.415 μg/ml, everolimus 16 nM) [%] | cells still alive ([1]; at 64 nM) | cell viability [1, 12] | viability at 0.032 µM ([2]; Homo sapiens, Hep3B, mRNA 0.415 μg/ml, everolimus 32 nM) [%] | cells still alive ([2]; at 64 nM) | cell viability [2, 12] | cell apoptosis [3] | cell apoptosis [4] | autophagy activation (WB, autophagosomes by TEM, GFP-LC3B by CLSM) [5] | LC3B-2 and LC3B-2/actin ratio (WB) ([5]; increase of everolimus concentration) | mTOR pathway targets (p-mTOR and p-p70S6K; WB) [5, 12] | autophagy activation (WB, autophagosomes by TEM, GFP-LC3B by CLSM) [6] | mTOR pathway targets (p-mTOR and p-p70S6K; WB) [6, 12] | tumor growth [7] | autophagy in tumors (LC3B-2 relative to actin, BECN1; WB) [8] | orthotopic tumor growth / burden (bioluminescence) [9] | metastatic nodules in the liver [10] | cells dead / killed [11] |
| --- | --- | --- | --- | --- | --- | --- | --- | --- | --- | --- | --- | --- | --- | --- | --- | --- | --- | --- |
| CO[C@H]1C[C@@H]2CC[C@@H](C)[C@@](O)(O2)C(=O)C(=O)N2CCCC[C@H]2C(=O)O[C@H]([C@H](C)C[C@@H]2CC[C@@H](OCCO)[C@H](OC)C2)CC(=O)[C@H](C)/C=C(\C)[C@@H](O)[C@@H](OC)C(=O)[C@H](C)C[C@H](C)/C=C/C=C/C=C/1C [everolimus, Everolimus] | > 80 | over 50% | no significant decrease in cell viability | ~70 | over 50% | no significant decrease in cell viability | moderate apoptotic cell death | moderate apoptotic cell death | activation of autophagy | upregulation of LC3B-2 and higher LC3B-2/actin ratios | substantially blocked | activation of autophagy | substantially blocked | moderate anti-tumor activity | induced autophagy | somewhat inhibited the growth of orthotopic tumors | moderate effects | – |
| N.N.[Cl][Pt][Cl] [cisplatin] | – | – | – | – | – | – | – | – | – | – | – | – | – | – | – | – | – | less than 50% |
